Results as given in PMC7283364 (ACS infectious diseases, 2019).
Values joined by “and” are separate entries in the source; they are usually repeats but may differ in a detail not shown here. Identical values can stand only once. Like-named read-outs stand apart in the source and are kept apart here. One block for each compound: values may come before it. Where a SMILES comes first, the peptide text is derived from it. The star is where a group is joined. Cbz = O=C(OCc1ccccc1)*

How the values were obtained:
[1] = system: adult S. mansoni; assay: WormAssay quantitative motility assay of adult worms in culture; format: cell-based, Schistosoma mansoni; details: 1 μM, mixed-sex adults
[2] = system: adult S. mansoni; assay: Microscopic observation of phenotypic changes of adult worms in culture; format: cell-based, Schistosoma mansoni; details: 1 μM; for phenotype viewed under the microscope: 72 h; for phenotypic changes: 24 h
[3] = system: caspase activity in adult S. mansoni; assay: Caspase activity; format: cell-based, Schistosoma mansoni; details: 1 μM, 24 h, Ac-DEVD-AFC
[4] = system: S. mansoni proteasome β5 subunit; assay: Inhibition of proteasome activity; format: biochemical, Schistosoma mansoni; details: 1 μM inhibitor added to lysate, Suc-LLVY-AMC, E-64 present
[5] = system: S. mansoni proteasome β5 subunit; assay: Proteasome inhibition in living worms exposed to inhibitors; format: cell-based, Schistosoma mansoni; details: worms exposed to 1 μM for 24 h, washed, extracts assayed with Suc-LLVY-AMC
[6] = system: Schistosoma mansoni infectious larvae (cercariae); details: cercariae pre-treated with 50 μM; cited from earlier work
[7] = target: Sm20S β5 subunit (Schistosoma mansoni, UniProt A0A5K4F079); assay: Sm20S β5 inhibition assay; format: biochemical
[8] = target: human immunoproteasome (i20S) β2 subunit (Homo sapiens, UniProt P40306); assay: i20S β2 inhibition assay; format: biochemical
[9] = target: human immunoproteasome (i20S) β5 subunit (Homo sapiens, UniProt P28062); assay: i20S β5 inhibition assay; format: biochemical; details: for fold less potent towards i20S β5: compared with c20S and Sm20S β5
[10] = system: HepG2 cells
[11] = system: HepG2 cells; details: cited from earlier work
[12] = system: Sm20S β2 subunit; assay: Sm20S β2 inhibition assay; format: biochemical
[13] = target: Sm20S β1 subunit (Schistosoma mansoni, UniProt G4V926); assay: Sm20S β1 inhibition assay; format: biochemical; details: for IC50: read-out: IC50 Sm20S β1, z-LLE-AMC
[14] = target: Sm20S β2 subunit (Schistosoma mansoni, UniProt G4VSW3); assay: Sm20S β2 inhibition assay; format: biochemical; details: for IC50: read-out: IC50 Sm20S β2, z-LRR-AMC
[15] = target: human immunoproteasome (i20S) β1 subunit (Homo sapiens, UniProt P28065); assay: i20S β1 inhibition assay; format: biochemical; details: read-out: IC50 i20S β1

SMILES: CC(C)C[C@@H](C=O)NC(=O)[C@H](CC(C)C)NC(=O)[C@H](CC(C)C)NC(=O)OCc1ccccc1 [MG132] (Cbz-Leu-Leu-Leu-aldehyde)
- decrease in worm motility ([1]; 24 h): did not alter motility
- phenotype viewed under the microscope [2]: appeared normal in shape, movement and color
- increase in caspase activity compared to the DMSO control [3]: not significantly different from the DMSO control
- reduction of proteolytic activity in worm lysate [4]: 92%
- decrease in endogenous proteasome (β5) activity in living worms [5]: no effect on proteasome activity
- reduction in parasite establishment compared to control-treated mice [6]: 96%

SMILES: CCCCCC(=O)N[C@H](C(=O)N[C@@H](CCCC)C(=O)N[C@@H](CC(C)C)C(=O)[C@@]1(C)CO1)C(C)C [analog 1]
- difference in potency between c20S and Sm20S ([7]; all subunits): no difference in potency
- fold less potent towards i20S β2 ([8]; compared with c20S and Sm20S β2): at least 5 fold
- fold less potent towards i20S β5 [9]: at least 5 fold
- fold less cytotoxic to HepG2 cells than carmaphycin B [10]: 11 fold
- EC50 [11]: 134 nM

- fold less potent towards i20S β5 [9]: at least 5 fold
SMILES: CCCCCC(=O)N[C@@H](Cc1ccccc1)C(=O)N[C@@H](CCCC)C(=O)N[C@@H](Cc1ccccc1)C(=O)[C@@]1(C)CO1 [analog 7]
- fold more potent for Sm20S β2 relative to c20S [12]: 3.3 fold

- IC50 [13]: 15 nM
- IC50 [14]: 272 nM
- IC50 [7]: 9 nM
- potency for Sm20S β1 compared with β5 [7]: equal potency
SMILES: CC(C)C[C@H](NC(=O)[C@H](Cc1ccccc1)NC(=O)c1cnccn1)B(O)O [bortezomib]
- decrease in worm motility ([1]; 6 h): 45%
- phenotypic changes [2]: same deleterious phenotypic changes previously noted for bortezomib
- phenotype viewed under the microscope [2]: relatively motionless, unable to extend or flex their bodies and darkened, and had detached from the surface of the well
- increase in caspase activity compared to the DMSO control [3]: 7 fold
- reduction of proteolytic activity in worm lysate [4]: 99%

SMILES: CC(C)C[C@H](NC(=O)[C@H](CCc1ccccc1)NC(=O)CN1CCOCC1)C(=O)N[C@@H](Cc1ccccc1)C(=O)N[C@@H](CC(C)C)C(=O)[C@@]1(C)CO1 [carfilzomib]
- decrease in worm motility ([1]; 6 h): 47%
- phenotype viewed under the microscope [2]: phenotypic changes were similar to those observed for bortezomib
- increase in caspase activity compared to the DMSO control [3]: 4.5 fold
- reduction of proteolytic activity in worm lysate [4]: 100%
- decrease in endogenous proteasome (β5) activity in living worms [5]: 84% and > 75%
- fold less potent against Sm20S β1 compared to bortezomib [13]: more than 33 fold
- IC50 [13]: > 500 nM
- fold more potent against Sm20S β2 compared to bortezomib [14]: 5.6 fold
- IC50 [14]: 48 nM
- fold more potent against Sm20S β5 compared to bortezomib [7]: 18 fold
- selectivity for Sm20S β5 subunit over β1 [7]: ~1000 fold
- selectivity for Sm20S β5 subunit over β2 [7]: approximately 100 fold

SMILES: CCCCCC(=O)N[C@H](C(=O)N[C@@H](CCS(C)(=O)=O)C(=O)N[C@@H](CC(C)C)C(=O)[C@@]1(C)CO1)C(C)C [carmaphycin B]
- decrease in worm motility ([1]; 24 h): at least 80%
- phenotypic changes [2]: same deleterious phenotypic changes previously noted for bortezomib
- decrease in endogenous proteasome (β5) activity in living worms [5]: at least 80%
- IC50 [13]: > 500 nM
- IC50 [14]: 0.6 nM
- IC50 ([7]; read-out: IC50 Sm20S β5, Suc-LLVY-AMC): 9.8 nM
- IC50 [15]: > 500 nM
- IC50 ([8]; read-out: IC50 i20S β2): 62 nM
- IC50 ([9]; read-out: IC50 i20S β5): < 5 nM
